Test results published in patent US6403575B1, “3-Pyridyl enantiomers and their use as analgesics” (Abbott Laboratories, priority 1996, dated 2002).
Counter-ions that a name gives are not always drawn. Like-named read-outs stand apart in the source and are kept apart here.

Tests used:
[1] = dog, in vivo; for AUD0. / Cmax / Tmax / t½: po; for Cmax / Tmax / t½: 200 nmol/kg
Procedure: Beagle dogs were fasted overnight prior to dosing but were permitted free access to water. Each of the prodrugs was administered to a group of three animals at a dose of 200 nmol/kg. The formulation was adminstered by oral gavage. The prodrugs were prepared as 200 nmol/ml (1 ml/kg) solutions in normal saline. Blood samples from a jugular vein of each dog prior to dosing and 0.17, 0.33, 0.5, 0.75, 1, 1.5, 2, 3, 4, 6 and 8 hours after drug administration.

[2] = tested on: mice; experiment: Mouse Hot Plate Paradigm; format: in vivo; set-up: key to MED Hot plate model (μmol/kg, i.p.): NS = no significant effect observed relative to saline controls at the doses tested; conditions: 30 minutes prior to testing, 55° C.; for minimal effective dose: ip, 0.5 h, i.p., read-out: MED Hot plate model (μmol/kg, i.p.)
[3] = target: T1, neuronal nicotinic acetylcholine receptors (Rattus norvegicus, UniProt P09483+P12390); experiment: [3H]-cytisine binding to neuronal nicotinic acetylcholine receptors, whole rat brain membranes
T1 construct: crude synaptic membrane preparations from whole rat brain; from tissue; host or cells: whole rat brain, crude synaptic membranes
Procedure: Protocol for Determination of Nicotinic Acetylcholine Channel Receptor Binding Potencies of Ligands
Binding of [^3H]-cytisine ([^3H]-CYT) to neuronal nicotinic acetylcholine receptors was accomplished using crude synaptic membrane preparations from whole rat brain (Pabreza et al., Molecular Pharmacol., 1990, 39:9). Washed membranes were stored at −80° C. prior to use. Frozen aliquots were slowly thawed and resuspended in 20 volumes of buffer (containing: 120 mM NaCl, 5 mM KCl, 2 mM MgCl2, 2 mM CaCl2 and 50 mM Tris-Cl, pH 7.4 @4° C.). After centrifuging at 20,000×g for 15 minutes, the pellets were resuspended in 30 volumes of buffer. Homogenate (containing 125-150 μg protein) was added to triplicate tubes containing concentrations of test compound and [^3H]-CYT (1.25 nM) in a final volume of 500 μL. Samples were incubated for 60 minutes at 4° C., then rapidly filtered through Whatman GF/B filters presoaked in 0.5% polyethyleneimine using 3×4 mL of ice-cold buffer. The filters are counted in 4 mL of Ecolume® (ICN). Nonspecific binding was determined in the presence of 10 μM (−)-nicotine and values were expressed as a percentage of total binding.

[4] = [3H]-cytisine 1.25 nM, whole rat brain membranes, read-out: [3H] CYT Ki

T1 sequence (P09483 31-630): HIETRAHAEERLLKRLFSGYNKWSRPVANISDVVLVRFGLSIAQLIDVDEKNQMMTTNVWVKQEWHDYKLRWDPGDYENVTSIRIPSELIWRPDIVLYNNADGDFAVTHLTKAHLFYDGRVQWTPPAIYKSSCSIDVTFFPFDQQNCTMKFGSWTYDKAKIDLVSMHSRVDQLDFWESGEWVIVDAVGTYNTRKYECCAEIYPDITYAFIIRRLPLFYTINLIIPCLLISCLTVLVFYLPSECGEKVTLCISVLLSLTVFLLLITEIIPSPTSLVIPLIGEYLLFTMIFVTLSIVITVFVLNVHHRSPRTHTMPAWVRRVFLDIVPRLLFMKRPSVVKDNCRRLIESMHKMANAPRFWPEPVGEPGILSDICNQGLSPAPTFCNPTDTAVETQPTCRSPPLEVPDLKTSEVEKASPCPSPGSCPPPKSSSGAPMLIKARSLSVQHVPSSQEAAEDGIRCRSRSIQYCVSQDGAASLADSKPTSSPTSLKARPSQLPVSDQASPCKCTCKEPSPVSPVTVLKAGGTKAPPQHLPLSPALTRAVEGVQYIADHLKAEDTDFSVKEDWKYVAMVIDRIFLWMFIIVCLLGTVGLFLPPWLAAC
T1 sequence (P12390 25-500): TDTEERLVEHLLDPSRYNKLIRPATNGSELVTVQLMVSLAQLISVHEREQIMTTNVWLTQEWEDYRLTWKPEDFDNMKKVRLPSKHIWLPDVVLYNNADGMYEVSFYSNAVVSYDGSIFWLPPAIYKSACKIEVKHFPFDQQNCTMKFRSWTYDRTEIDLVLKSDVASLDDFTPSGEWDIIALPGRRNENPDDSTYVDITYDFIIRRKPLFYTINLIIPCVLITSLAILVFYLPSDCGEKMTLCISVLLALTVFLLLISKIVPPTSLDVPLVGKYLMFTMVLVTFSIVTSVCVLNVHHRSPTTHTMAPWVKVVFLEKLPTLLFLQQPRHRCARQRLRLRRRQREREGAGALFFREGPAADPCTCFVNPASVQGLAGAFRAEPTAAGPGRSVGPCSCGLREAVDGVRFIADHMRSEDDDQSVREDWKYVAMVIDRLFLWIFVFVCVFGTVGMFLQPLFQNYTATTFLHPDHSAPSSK

## COC(=O)c1ccc(C(=O)N2CC[C@@H]2COc2ccc(F)nc2)cc1 [4-MeO2CC6H4CO]
[1]
  F* (%) efficiency of conversion: 61.2%
  AUD0.: 42.37 ng·h/mL
  Cmax: 10.31 ng/mL
  Tmax: 0.8 h
  t½: 1.8 h

## O=C(c1ccc(Cl)cc1)N1CC[C@@H]1COc1ccc(F)nc1 [Example 4-ClC6H4CO]
[1]
  F* (%) efficiency of conversion: 26.9%
  AUD0.: 18.61 ng·h/mL
  Cmax: 4.54 ng/mL
  Tmax: 0.8 h
  t½: 2.5 h

## O=C(c1ccc(F)cc1)N1CC[C@@H]1COc1ccc(F)nc1 [Example 4-FC6H4CO]
[1]
  F* (%) efficiency of conversion: 13.5%
  AUD0.: 9.35 ng·h/mL
  Cmax: 3.25 ng/mL
  Tmax: 0.8 h
  t½: 1.6 h

## Cc1ccc(C(=O)N2CC[C@@H]2COc2ccc(F)nc2)cc1 [Example 4-MeC6H4CO]
[1]
  F* (%) efficiency of conversion: 43.1%
  AUD0.: 29.85 ng·h/mL
  Cmax: 7.05 ng/mL
  Tmax: 0.8 h
  t½: 2.4 h

## COc1ccc(C(=O)N2CC[C@@H]2COc2ccc(F)nc2)cc1 [Example 4-MeOC6H4CO]
[1]
  F* (%) efficiency of conversion: 37.7%
  AUD0.: 26.09 ng·h/mL
  Cmax: 7.43 ng/mL
  Tmax: 0.8 h
  t½: 2.0 h

## O=C(c1ccc([N+](=O)[O-])cc1)N1CC[C@@H]1COc1ccc(F)nc1 [Example 4-NO2C6H4CO]
[1]
  F* (%) efficiency of conversion: 27.1%
  AUD0.: 18.76 ng·h/mL
  Cmax: 6.01 ng/mL
  Tmax: 0.8 h
  t½: 1.9 h

## Cl.Cl.c1cncc(OC[C@H]2CCN2)c1 [Example 6, (R)-3-(2-Azetidinylmethyloxy)pyridine dihydrochloride]
[2]
  MED Hot plate model (μmol/kg, i.p.): NS
[3]
  Ki: 0.04 nM

## c1cncc(OC[C@@H]2CCN2)c1 [Example 7, (S)-3-(2-Azetidinylmethyloxy)pyridine dihydrochloride]
[2]
  minimal effective dose: 6.2 µmol/kg
[3]
  Ki: 0.04 nM

## Brc1cncc(OC[C@@H]2CCN2)c1 [Example 12, 5-((2S)-Azetidinylmethyloxy)-3-bromopyridine dihydrochloride]
[2]
  MED Hot plate model (μmol/kg, i.p.): NS
[3]; [4]
  Ki: 0.26 nM

## Cc1ccc(OC[C@@H]2CCN2)cn1 [Example 20, 5-((2S)-Azetidinylmethyloxy)-2-methylpyridine dihydrochloride]
[2]
  minimal effective dose: 0.62 µmol/kg
[3]; [4]
  Ki: 0.06 nM

## Clc1cncc(OC[C@@H]2CCN2)c1 [Example 21, 5-((2S)-Azetidinylmethyloxy)-3-chloropyridine dihydrochloride]
[2]
  MED Hot plate model (μmol/kg, i.p.): NS
[3]; [4]
  Ki: 0.04 nM

## C=Cc1cncc(OC[C@@H]2CCN2)c1 [Example 22, 5-Vinyl-3-((2S)-Azetidinylmethyloxy)lpyridine dihydrochloride]
[3]; [4]
  Ki: 0.97 nM

## CCc1cncc(OC[C@@H]2CCN2)c1 [Example 23, 5-Ethyl-3-((2S)-Azetidinylmethyloxy)lpyridine hydrochloride]
[2]
  MED Hot plate model (μmol/kg, i.p.): NS
[3]; [4]
  Ki: 0.11 nM

## CCCc1cncc(OC[C@@H]2CCN2)c1 [Example 24, 5-Propyl-3-((2S)-azetidinylmethyloxy)lpyridine hydrochloride]
[2]
  minimal effective dose: 62 µmol/kg
[3]; [4]
  Ki: 0.05 nM

## Cc1cc(OC[C@@H]2CCN2)cnc1Cl [Example 25, 2-Chloro-3-methyl-5-(2-(S)-azetidinylmethoxy)pyridine citrate]
[2]
  minimal effective dose: 0.062 µmol/kg
[3]; [4]
  Ki: 0.05 nM

## C=Cc1cc(OC[C@@H]2CCN2)cnc1Cl [Example 26, 2-Chloro-3-vinyl-5-((2S)-azetidinylmethoxy)pyridine hydrochloride]
[2]
  minimal effective dose: 1.9 µmol/kg
[3]; [4]
  Ki: 0.24 nM

## CCc1cc(OC[C@@H]2CCN2)cnc1Cl [Example 27, 2-Chloro-3-ethyl-5-((2S)-azetidinylmethoxy)pyridine hydrochloride]
[2]
  MED Hot plate model (μmol/kg, i.p.): NS
[3]; [4]
  Ki: 0.04 nM

## Fc1ncc(OCC2CCN2)cc1Cl (stereo not drawn) [Example 33, 5-((29)-azetidinylmethoxy)-3-chloro-2-fluoropyridine tosylate]
[3]; [4]
  Ki: 0.04 nM

## Clc1ncccc1OC[C@H]1CCN1 [Example 97, 2-Chloro-3-(2-(R)-azetidinylmethoxy)pyridine tosylate]
[3]; [4]
  Ki: 85 nM

## CN1CC[C@H]1COc1ccc(C(F)F)nc1 [Example 113, 6-Difluoromethyl-3-((1-methyl-2-(S)-azetidinyl)methoxy)pyridine citrate]
[3]; [4]
  Ki: 0.17 nM

## Clc1cncc(OC[C@H]2CCN2)c1 [Example 114, 3-(2-(R)-Azetidinylmethoxy)-5-chloropyridine tosylate]
[3]; [4]
  Ki: 0.12 nM

## Cc1ccc(OC[C@H]2CCN2)cn1 [Example 115, 6-Methyl-3-(2-(R)-azetidinylmethoxy)pyridine]
[3]; [4]
  Ki: 0.07 nM

## Fc1ccc(OC[C@@H]2CCN2)c(F)n1 [Example 116, 2.6-Difluoro-3-(2-(S)-azetidinylmethoxy)pyridine tosylate]
[3]; [4]
  Ki: 0.34 nM

## Cc1ccc(OC[C@@H]2CCN2)c(F)n1 [Example 117, 2-Fluoro-6-methyl-3-(2-(S)-azetidinylmethoxy)pyridine tosylate]
[3]; [4]
  Ki: 0.17 nM

## Cc1ccc(OC[C@H]2CCN2)c(F)n1 [Example 118, 2-Fluoro-6-methyl-3-(2-(R)-azetidinylmethoxy)pyridine tosylate]
[3]; [4]
  Ki: 4.8 nM

## CCOc1cncc(OC[C@@H]2CCN2)c1 [Example 120, 5-Ethoxy-3-(2-(S)-azetidinylmethoxy)pyridine tosylate]
[3]; [4]
  Ki: 0.04 nM

## Clc1ncccc1OC[C@@H]1CCN1 [Example 121, 2-Chloro-3-(2-(S)-azetidinylmethoxy)pyridine hydrochloride]
[3]; [4]
  Ki: 2.3 nM

## N#Cc1ccc(OC[C@@H]2CCN2)cn1 [Example 123, 6-Cyano-3-(2(S)-azetidinylmethoxy)pyridine hydrochloride]
[3]; [4]
  Ki: 1.9 nM

## Cc1ncc(OC[C@H]2CCN2)cc1Br [Example 124, 3-(2-(R)-azetidinylmethoxy)-5-bromo-6-methylpyridine tosylate]
[3]; [4]
  Ki: 0.03 nM

## Fc1ncc(OC[C@H]2CCN2)cc1Br [Example 125, 5-bromo-6-fluoro-3-(2-(R)-azetidinylmethoxy)pyridine]
[3]
  Ki: 0.04 nM

## CCc1cc(OC[C@@H]2CCN2)cnc1F [Example 126, 5-ethyl-6-fluoro-3-(2-(S)-azetidinylmethoxy)pyridine]
[3]; [4]
  Ki: 0.07 nM

## Cc1cc(OC[C@H]2CCN2)cnc1Cl [Example 127, 2-Chloro-3-methyl-5-(2-(R)--azetidinylmethoxy)pyridine citrate]
[3]
  Ki: 0.06 nM

## Brc1ccc(OC[C@H]2CCN2)cn1 [Example 128, 5-(2-(R)-azetidinylmethoxy)-2-bromo-pyridine tosylate]
[3]; [4]
  Ki: 0.17 nM

## C=Cc1cc(OC[C@H]2CCN2)cnc1F [Example 129, 5-((2R)-Azetidinylmethoxy)-2-fluoro-3-vinylpyridine tosylate]
[3]; [4]
  Ki: 0.09 nM

## C=CCc1cncc(OC[C@@H]2CCN2)c1 [Example 130, 3-(2-(S)-azetidinylmethoxy)-5-(3-propenyl)pyridine hydrochloride]
[3]; [4]
  Ki: 0.04 nM

## C=Cc1cc(OC[C@@H]2CCN2)cnc1F [Example 131, 5-(2-(S)-Azetidinylmethoxy)-3-ethenyl-2-fluoropyridine tosylate]
[3]; [4]
  Ki: 0.13 nM

## O=C(c1ccccc1)N1CC[C@@H]1COc1ccc(F)nc1 [PhCO]
[1]
  F* (%) efficiency of conversion: 27.3%
  AUD0.: 18.89 ng·h/mL
  Cmax: 6.31 ng/mL
  Tmax: 0.6 h
  t½: 1.8 h
